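A five-concentration, 48-hour dose response in 96-well plates underlies each endpoint, interpolated linearly between surrounding concentrations. GI50 marks 50% less growth. TGI: total growth inhibition.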
Columns and labels:
Assay in all cases: DTP human tumour cell line panel, 48 h
NCI-H460 lung = test system: NCI-H460 lung
IGROV1 ovarian = test system: IGROV1 ovarian
SK-MEL-5 melanoma = test system: SK-MEL-5 melanoma
SW-620 colon = test system: SW-620 colon
UACC-62 melanoma = test system: UACC-62 melanoma
OVCAR-8 ovarian = test system: OVCAR-8 ovarian
RPMI-8226 leukemia = test system: RPMI-8226 leukemia
MOLT-4 leukemia = test system: MOLT-4 leukemia
RXF 393 renal = test system: RXF 393 renal
HS 578T breast = test system: HS 578T breast

COc1cc2c(cc1C)NC(=O)/C2=C/c1ccccn1
GI50 (NCI-H460 lung): 3.56 µM | TGI (NCI-H460 lung): > 100 µM | GI50 (IGROV1 ovarian): 9.6 µM | TGI (IGROV1 ovarian): > 100 µM | GI50 (SK-MEL-5 melanoma): 4.49 µM | TGI (SK-MEL-5 melanoma): 27.3 µM | GI50 (SW-620 colon): 6.91 µM | TGI (SW-620 colon): > 100 µM | GI50 (UACC-62 melanoma): 2.85 µM | TGI (UACC-62 melanoma): 13.9 µM | GI50 (OVCAR-8 ovarian): 3.14 µM | TGI (OVCAR-8 ovarian): > 100 µM | GI50 (RPMI-8226 leukemia): 3.93 µM | TGI (RPMI-8226 leukemia): > 100 µM | GI50 (MOLT-4 leukemia): 4.28 µM | TGI (MOLT-4 leukemia): > 100 µM

COc1cc(/C=C2/C(=O)N(C(=O)OCC(C)C)C(Cc3cc(OC)c(OC)c(C)c3OC)C(=O)N2Cc2ccccc2)c(OC)c(C)c1OC (configuration not stated)
TGI (NCI-H460 lung): > 100 µM | TGI (IGROV1 ovarian): > 100 µM | TGI (SK-MEL-5 melanoma): > 100 µM | TGI (SW-620 colon): > 100 µM | TGI (UACC-62 melanoma): > 100 µM | TGI (RXF 393 renal): > 100 µM | TGI (OVCAR-8 ovarian): > 100 µM | TGI (RPMI-8226 leukemia): > 100 µM | TGI (MOLT-4 leukemia): > 100 µM

CC(C)C1CC[C@@H](C)C[C@@]1(O)CC(N)=O (some centres not stated)
TGI (NCI-H460 lung): > 100 µM | TGI (IGROV1 ovarian): > 100 µM | TGI (SK-MEL-5 melanoma): > 100 µM | TGI (SW-620 colon): > 100 µM | TGI (UACC-62 melanoma): > 100 µM | TGI (OVCAR-8 ovarian): > 100 µM | TGI (RPMI-8226 leukemia): > 100 µM | TGI (MOLT-4 leukemia): > 100 µM

COc1ccc(Br)c(N/N=C2\CCCNC2=O)c1
TGI (NCI-H460 lung): > 100 µM | TGI (IGROV1 ovarian): > 100 µM | TGI (SK-MEL-5 melanoma): > 100 µM | TGI (SW-620 colon): > 100 µM | TGI (UACC-62 melanoma): > 100 µM | TGI (OVCAR-8 ovarian): > 100 µM | TGI (RPMI-8226 leukemia): > 100 µM | TGI (MOLT-4 leukemia): > 100 µM

COc1ccc2n[se]nc2c1
TGI (IGROV1 ovarian): > 100 µM | TGI (SK-MEL-5 melanoma): > 100 µM | TGI (SW-620 colon): > 100 µM | TGI (UACC-62 melanoma): > 100 µM | TGI (RXF 393 renal): > 100 µM | TGI (OVCAR-8 ovarian): > 100 µM | TGI (RPMI-8226 leukemia): > 100 µM | TGI (MOLT-4 leukemia): > 100 µM

O=C([CH-]C(=O)c1ccccc1)c1ccccc1.O=C([CH-]C(=O)c1ccccc1)c1ccccc1.[La+3].[OH-].[OH3+]
GI50 (NCI-H460 lung): 8.66 µM | TGI (NCI-H460 lung): > 100 µM | GI50 (IGROV1 ovarian): 25.8 µM | TGI (IGROV1 ovarian): > 100 µM | GI50 (SK-MEL-5 melanoma): 10.3 µM | TGI (SK-MEL-5 melanoma): 23.9 µM | GI50 (SW-620 colon): 9.82 µM | TGI (SW-620 colon): > 100 µM | GI50 (UACC-62 melanoma): 14 µM | TGI (UACC-62 melanoma): 44.7 µM | GI50 (RXF 393 renal): 2.99 µM | TGI (RXF 393 renal): 29.6 µM | GI50 (OVCAR-8 ovarian): 6.67 µM | TGI (OVCAR-8 ovarian): 65.4 µM | GI50 (RPMI-8226 leukemia): 11.1 µM | TGI (RPMI-8226 leukemia): 49.9 µM | GI50 (MOLT-4 leukemia): 6.24 µM | TGI (MOLT-4 leukemia): 38.6 µM

COC1CC(OS(=O)(=O)c2ccc([N+](=O)[O-])cc2)C(OC(=O)c2ccccc2)C(C)O1 (configuration not stated)
TGI (NCI-H460 lung): > 100 µM | TGI (IGROV1 ovarian): > 100 µM | TGI (SK-MEL-5 melanoma): > 100 µM | TGI (SW-620 colon): > 100 µM | TGI (UACC-62 melanoma): > 100 µM | TGI (RXF 393 renal): > 100 µM | TGI (OVCAR-8 ovarian): > 100 µM | TGI (RPMI-8226 leukemia): > 100 µM | TGI (MOLT-4 leukemia): > 100 µM

CN(C)CC/C(=N\Nc1ccc([N+](=O)[O-])cc1)c1ccccc1
TGI (NCI-H460 lung): 21.3 µM | TGI (IGROV1 ovarian): 24.9 µM | TGI (SK-MEL-5 melanoma): 28.5 µM | TGI (SW-620 colon): 26.5 µM | TGI (UACC-62 melanoma): 25.9 µM | TGI (RXF 393 renal): 17.1 µM | TGI (OVCAR-8 ovarian): 27.1 µM | TGI (RPMI-8226 leukemia): 30.6 µM | TGI (MOLT-4 leukemia): 24.5 µM

CCOc1ccc2c(c1)[n+]([O-])c(-c1ccc(Cl)cc1)c(N)[n+]2[O-]
TGI (NCI-H460 lung): > 100 µM | TGI (IGROV1 ovarian): > 100 µM | TGI (SK-MEL-5 melanoma): > 100 µM | TGI (SW-620 colon): > 100 µM | TGI (OVCAR-8 ovarian): > 100 µM | TGI (RPMI-8226 leukemia): > 100 µM | TGI (MOLT-4 leukemia): > 100 µM

CN1C(=Nc2ccccc2)SC1=Nc1ccccc1
TGI (NCI-H460 lung): > 100 µM | TGI (IGROV1 ovarian): > 100 µM | TGI (SK-MEL-5 melanoma): > 100 µM | TGI (SW-620 colon): > 100 µM | TGI (UACC-62 melanoma): > 100 µM | TGI (OVCAR-8 ovarian): > 100 µM | TGI (RPMI-8226 leukemia): > 100 µM | TGI (MOLT-4 leukemia): > 100 µM

Oc1c(C(Nc2cccc3cccnc23)c2ccccc2)ccc2cccnc12 (configuration not stated)
TGI (NCI-H460 lung): > 100 µM | TGI (IGROV1 ovarian): 39.9 µM | TGI (SW-620 colon): > 100 µM | TGI (UACC-62 melanoma): > 100 µM | TGI (OVCAR-8 ovarian): 21.3 µM | TGI (RPMI-8226 leukemia): > 100 µM | TGI (MOLT-4 leukemia): > 100 µM

COc1ccc2nc3cccc([N+](=O)[O-])c3c(NCCCCCC(=O)O)c2c1
GI50 (NCI-H460 lung): 0.0442 µM | TGI (NCI-H460 lung): 0.806 µM | GI50 (HS 578T breast): 0.456 µM | TGI (HS 578T breast): 2.03 µM | GI50 (IGROV1 ovarian): 0.231 µM | TGI (IGROV1 ovarian): 1.16 µM | GI50 (SK-MEL-5 melanoma): 0.0116 µM | TGI (SK-MEL-5 melanoma): 0.0694 µM | TGI (SW-620 colon): 0.268 µM | GI50 (UACC-62 melanoma): 0.183 µM | TGI (UACC-62 melanoma): 0.465 µM | GI50 (OVCAR-8 ovarian): 0.0877 µM | TGI (OVCAR-8 ovarian): 2.22 µM | GI50 (RPMI-8226 leukemia): 0.0131 µM | TGI (RPMI-8226 leukemia): 0.052 µM | GI50 (MOLT-4 leukemia): 0.0266 µM | TGI (MOLT-4 leukemia): 0.284 µM

COc1cc([C@@H]2OC[C@@H]3C(c4cc(OC)c5c(c4)OCO5)OC[C@@H]32)cc(OC)c1OC (some centres not stated)
TGI (NCI-H460 lung): > 100 µM | TGI (HS 578T breast): > 100 µM | TGI (IGROV1 ovarian): > 100 µM | TGI (SK-MEL-5 melanoma): > 100 µM | TGI (SW-620 colon): > 100 µM | TGI (UACC-62 melanoma): > 100 µM | TGI (OVCAR-8 ovarian): > 100 µM | TGI (RPMI-8226 leukemia): > 100 µM | TGI (MOLT-4 leukemia): > 100 µM

CCOc1ccccc1N1C(=O)C(=O)C(c2nc3ccccc3o2)C(=O)C1=O
TGI (IGROV1 ovarian): > 100 µM | TGI (SK-MEL-5 melanoma): > 100 µM | TGI (SW-620 colon): > 100 µM | TGI (UACC-62 melanoma): > 100 µM | TGI (OVCAR-8 ovarian): > 100 µM | TGI (RPMI-8226 leukemia): > 100 µM | TGI (MOLT-4 leukemia): > 100 µM

CC(=O)OCC1OC(n2cnc(C(N)=S)c2N)C(OC(C)=O)C1OC(C)=O (configuration not stated)
TGI (NCI-H460 lung): > 100 µM | TGI (HS 578T breast): > 100 µM | TGI (IGROV1 ovarian): > 100 µM | TGI (SK-MEL-5 melanoma): > 100 µM | TGI (SW-620 colon): > 100 µM | TGI (UACC-62 melanoma): > 100 µM | TGI (OVCAR-8 ovarian): > 100 µM | TGI (RPMI-8226 leukemia): > 100 µM | TGI (MOLT-4 leukemia): > 100 µM

CP1(=O)CCCCC1
TGI (NCI-H460 lung): > 100 µM | TGI (IGROV1 ovarian): > 100 µM | TGI (SK-MEL-5 melanoma): > 100 µM | TGI (SW-620 colon): > 100 µM | TGI (UACC-62 melanoma): > 100 µM | TGI (RXF 393 renal): > 100 µM | TGI (OVCAR-8 ovarian): > 100 µM | TGI (RPMI-8226 leukemia): > 100 µM | TGI (MOLT-4 leukemia): > 100 µM

O=[N+]([O-])c1cc(C(F)(F)F)cc([N+](=O)[O-])c1CCl
TGI (NCI-H460 lung): 21.4 µM | TGI (IGROV1 ovarian): 6.09 µM | TGI (SK-MEL-5 melanoma): 1.75 µM | TGI (SW-620 colon): 1.63 µM | TGI (UACC-62 melanoma): 1.21 µM | TGI (RXF 393 renal): 5.09 µM | TGI (OVCAR-8 ovarian): 4.91 µM | TGI (RPMI-8226 leukemia): 3.49 µM | TGI (MOLT-4 leukemia): 1.39 µM

Reference: PubChem BioAssay (NCI)
